Test results reported in ChEMBL document CHEMBL4382217 (Bioorg Med Chem, 2018).
pIC50: −log10 of the molar value.

Columns and labels:
[1] = Selectivity index, ratio of GI50 for human A431 cells harboring WT EGFR to GI50 for human NCI-H1975 cells harboring EGFR T790M/L858R double mutant
[2] = Antiproliferative activity against human A431 cells harboring WT EGFR after 72 hrs by MTS assay; assay type: cell-based, A-431; settings: human, A431 cells harboring WT EGFR
NCI-H1975 [3] = assay: Antiproliferative activity against human NCI-H1975 cells harboring EGFR T790M/L858R double mutant after 72 hrs by MTS assay; assay type: functional, cell-based
[4] = Half life in po dosed mouse; assay type: ADME, organism-based; settings: in vivo
[5] = Toxicity in castrated nude mouse xenografted with human PC9 cells assessed as body weight loss at 10 mg/kg, po daily for 14 consecutive days relative to control; assay type: organism-based; settings: in vivo
HCC827 [6] = assay: Antiproliferative activity against human HCC827 cells harboring EGFR mutant after 72 hrs by MTS assay; assay type: functional, cell-based; settings: HCC827, 72 h
Calu-6 = assay: Antiproliferative activity against human Calu6 cells harboring WT EGFR after 72 hrs by MTS assay; assay type: cell-based; settings: Calu-6, 72 h
Calu-3 = assay: Antiproliferative activity against human Calu3 cells harboring WT EGFR after 72 hrs by MTS assay; assay type: cell-based; settings: Calu-3, 72 h
[7] = Toxicity in castrated nude mouse xenografted with human NCI-H1975 cells assessed as body weight loss at 20 mg/kg, po daily for 14 consecutive days relative to control; assay type: organism-based; settings: in vivo
NCI-H1975 [8] = assay: Antitumor activity against human NCI-H1975 cells harboring EGFR T790M/L858R double mutant xenografted in castrated nude mouse assessed as tumor growth inhibition at 20 mg/kg, po daily for 14 consecutive days measured on day 15 relative to control; assay type: functional
[9] = Toxicity in castrated nude mouse xenografted with human HCC827 cells assessed as body weight loss at 10 mg/kg, po daily for 14 consecutive days relative to control; assay type: organism-based; settings: in vivo
PC-9 [10] = assay: Antitumor activity against human PC9 cells harboring EGFR exon-19 del mutant xenografted in castrated nude mouse assessed as tumor growth inhibition at 10 mg/kg, po daily for 14 consecutive days measured on day 15 relative to control; assay type: functional
HCC827 [11] = assay: Antitumor activity against human HCC827 cells harboring EGFR exon-19 del mutant xenografted in castrated nude mouse assessed as tumor growth inhibition at 10 mg/kg, po daily for 14 consecutive days measured on day 15 relative to control; assay type: functional
PC-9 [12] = assay: Antiproliferative activity against human PC9 cells harboring EGFR mutant after 72 hrs by MTS assay; assay type: functional, cell-based; settings: PC-9, 72 h

Row | SMILES | RatioGI50 [1] | GI50 at 72 h [2] [µM] | GI50 (NCI-H1975 [3]; Homo sapiens, NCI-H1975, 72 h) [µM] | other results
1 | C=CC(=O)Nc1cc(Nc2nccc(-c3noc4ccccc34)n2)c(OC)cc1N1CCN(C)CC1 | 4.3 | 0.728 | 0.168 | 
2 | C=CC(=O)Nc1cc(Nc2nccc(-c3noc4ccccc34)n2)c(OC(F)F)cc1N(C)CCN(C)C | 22.3 | 0.0891 | 0.004 | 
3 | C=CC(=O)Nc1cc(Nc2nccc(-c3nn(C)c4ccsc34)n2)c(OC(F)F)cc1N1CCN(C)CC1 | 3.8 | 1.13 | 0.296 | 
4 | C=CC(=O)Nc1cc(Nc2nccc(-c3cn(C)c4cccnc34)n2)c(OC)cc1N1CCN(C)CC1 | 8.9 | 1.56 | 0.175 | 
5 | C=CC(=O)Nc1cc(Nc2nccc(-c3nn(C)c4ccsc34)n2)c(OC(F)F)cc1N(C)CCN(C)C | 13.2 | 0.0858 | 0.0065 | 
6 | C=CC(=O)Nc1cc(Nc2nccc(-c3noc4ccccc34)n2)c(OC)cc1N1CCC[C@H]1CN(C)C | >75.1 | > 10 | 0.844 | 
7 | C=CC(=O)Nc1cc(Nc2nccc(-c3cn(C)c4ccccc34)n2)c(OC)cc1N(C)CCN(C)C [OSIMERTINIB] |  |  |  | half-life [4]: 3 h; Activity [5]: […]; pIC50 (HCC827 [6]): […]; pIC50 (Calu-6): 5.23; pIC50 (Calu-3): 6.12; Activity [7]: <= 15%; GI50 (NCI-H1975 [3]): […]; pIC50 (NCI-H1975 [3]; Homo sapiens, NCI-H1975, 72 h): […]; TGI (NCI-H1975 [8]): 107%; Activity [9]: […]; TGI (PC-9 [10]): 106%; TGI (HCC827 [11]): 121%; pIC50 (PC-9 [12]): 6.80
8 | C=CC(=O)Nc1cc(Nc2nccc(-c3noc4ccccc34)n2)c(OC(F)F)cc1N1CCC[C@H]1CN(C)C | 3.5 | 1 | 0.285 | 
9 | C=CC(=O)Nc1cc(Nc2nccc(-c3cn(C)c4cccnc34)n2)c(OC(F)F)cc1N(C)CCN(C)C | 44.1 | 0.296 | 0.0067 | 
